Assay results published in patent US20160376237A1, “NOVEL PYRIDINE DERIVATIVES” (Hoffmann-La Roche Inc., priority 2014, published 2016).

What follows are compounds tested against T1, human CB2 receptors (Homo sapiens, UniProt P34972) (assay: cAMP assay). Settings: not given.
T1 construct: expressed in transfected cells; host or cells: CHO cells
Format: cell-based
Procedure: CHO cells expressing human CB1 or CB2 receptors are seeded 17-24 hours prior to the experiment 50.000 cells per well in a black 96 well plate with flat clear bottom (Corning Costar #3904) in DMEM (Invitrogen No. 31331), 1×HT supplement, with 10% fetal calf serum and incubated at 5% CO2 and 37° C. in a humidified incubator. The growth medium was exchanged with Krebs Ringer Bicarbonate buffer with 1 mM IBMX and incubated at 30° C. for 30 min. Compounds were added to a final assay volume of 100 μl and incubated for 30 min at 30° C. Using the cAMP-Nano-TRF detection kit the assay (Roche Diagnostics) was stopped by the addition of 50 μl lysis reagent (Tris, NaCl, 1.5% Triton X100, 2.5% NP40, 10% NaN3) and 50 μl detection solutions ([…] mAb Alexa700-cAMP 1:[…] Ruthenium-2-AHA-cAMP) and shaken for 2 h at room temperature. The time-resolved energy transfer is measured by a TRF reader (Evotec Technologies GmbH), equipped with a ND:YAG laser as excitation source. The plate is measured twice with the excitation at 355 nm and at the emission with a delay of 100 ns and a gate of 100 ns, total exposure time 10 s at 730 (bandwidth 30 nm) or 645 nm (bandwidth 75 nm), respectively. The FRET signal is calculated as follows: FRET=T730-Alexa730-P(T645-B645) with P=Ru730-B730/Ru645-B645, where T730 is the test well measured at 730 nM, T645 is the test well measured at 645 nm, B730 and B645 are the buffer controls at 730 nm and 645 nm, respectively. cAMP content is determined from the function of a standard curve spanning from […] to 0.13 nM cAMP.
EC50 values were determined using Activity Base analysis (ID Business Solution, Limited).

T1 sequence (P34972 whole entry): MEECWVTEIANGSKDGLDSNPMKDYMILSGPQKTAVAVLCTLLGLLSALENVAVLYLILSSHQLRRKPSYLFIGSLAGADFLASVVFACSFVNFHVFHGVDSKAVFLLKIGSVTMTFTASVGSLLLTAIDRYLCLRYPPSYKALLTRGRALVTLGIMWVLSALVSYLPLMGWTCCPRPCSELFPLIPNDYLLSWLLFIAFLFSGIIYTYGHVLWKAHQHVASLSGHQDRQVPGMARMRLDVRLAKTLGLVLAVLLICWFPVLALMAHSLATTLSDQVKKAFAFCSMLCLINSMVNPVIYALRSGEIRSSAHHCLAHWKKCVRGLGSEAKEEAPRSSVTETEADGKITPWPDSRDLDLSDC

Question: `CCC(CC)(NC(=O)c1ccc(N2CC(OC)C2)c(OCC2CC2)n1)C(=O)N1CC(F)C1` [Example 26, 6-(Cyclopropylmethoxy)-N-[3-(3-fluoroazetidine-1-carbonyl)pentan-3-yl]-5-(3-methoxyazetidin-1-yl)pyridine-2-carboxamide] was tested. Which EC50 did it give?
Answer: 4.58 nM

Question: For `NC(=O)[C@@H]1CC(F)(F)CN1C(=O)c1ccc(N2CCC3(C2)CC3(F)F)c(OCC2CC2)n1` (stereo partly drawn) [Example 31, (2S)-1-[6-(Cyclopropylmethoxy)-5-(2,2-difluoro-5-azaspiro[2.4]heptan-5-yl)pyridine-2-carbonyl]-4,4-difluoropyrrolidine-2-carboxamide], which EC50 is on record?
Answer: 19 nM

Question: How did the EC50 turn out when `CCC(CC)(NC(=O)c1ccc(-c2ccccc2)c(OCC2CC2)n1)C(=O)NC` [Example 6, 6-(Cyclopropylmethoxy)-N-[3-(methylcarbamoyl)pentan-3-yl]-5-phenylpyridine-2-carboxamide] was run?
Answer: 831 nM

Question: With `CC1(F)CN(c2ccc(C(=O)NC3(CC(N)=O)COC3)nc2OCC2CC2)C1` [Example 35, N-[3-(2-Amino-2-oxoethyl)oxetan-3-yl]-6-(cyclopropylmethoxy)-5-(3-fluoro-3-methylazetidin-1-yl)pyridine-2-carboxamide] as the compound, how does the EC50 read?
Answer: 213 nM

Question: For `COC(=O)C(C)(C)NC(=O)c1ccc(-c2ccc(Cl)cc2)c(SC)n1` [Example 1, Methyl 2-[[5-(4-chlorophenyl)-6-methylsulfanylpyridine-2-carbonyl]amino]-2-methylpropanoate], which EC50 is on record?
Answer: 344 nM

Question: With `NC(=O)[C@@H]1CC(F)(F)CN1C(=O)c1ccc(OCC2CC2)c(-c2ccc(Cl)cc2)n1` [Example 39, (2S)-1-[6-(4-Chlorophenyl)-5-(cyclopropylmethoxy)pyridine-2-carbonyl]-4,4-difluoropyrrolidine-2-carboxamide] as the compound, how does the EC50 read?
Answer: 18 nM

Question: Which EC50 does the source give for `Cc1nc(C(C)(C)NC(=O)c2ccc(OCC3CC3)c(-c3cccc(Cl)c3)n2)no1` [Example 9, 6-(3-Chlorophenyl)-5-(cyclopropylmethoxy)-N-[2-(5-methyl-1,2,4-oxadiazol-3-yl)propan-2-yl]pyridine-2-carboxamide] here?
Answer: 42.4 nM

Question: For `CC(C)C[C@H](NC(=O)c1ccc(N2CCC3(C2)CC3(F)F)c(OCC2CC2)n1)C(N)=O` (stereo partly drawn) [Example 30, N-[(2S)-1-Amino-4-methyl-1-oxopentan-2-yl]-6-(cyclopropylmethoxy)-5-(2,2-difluoro-5-azaspiro[2.4]heptan-5-yl)pyridine-2-carboxamide], which EC50 is on record?
Answer: 38.1 nM

Question: How did the EC50 turn out when `Cc1nc(C(C)(C)NC(=O)c2ccc(OCC3CC3)c(-c3ccc(Cl)cc3)n2)no1` [Example 40, 6-(4-Chlorophenyl)-5-(cyclopropylmethoxy)-N-[2-(5-methyl-1,2,4-oxadiazol-3-yl)propan-2-yl]pyridine-2-carboxamide] was run?
Answer: 16.9 nM

Question: With `NC(=O)[C@H](CC1CC1)NC(=O)c1ccc(OCC2CC2)c(OCC2CC2)n1` [Example 14, N-[(2S)-1-Amino-3-cyclopropyl-1-oxopropan-2-yl]-5,6-bis(cyclopropylmethoxy)pyridine-2-carboxamide] as the compound, how does the EC50 read?
Answer: 95 nM

Question: How did the EC50 turn out when `CC(C)C[C@H](NC(=O)c1ccc(N2CC(C)(F)C2)c(OCC2CC2)n1)C(N)=O` [Example 33, N-[(2S)-1-Amino-4-methyl-1-oxopentan-2-yl]-6-(cyclopropylmethoxy)-5-(3-fluoro-3-methylazetidin-1-yl)pyridine-2-carboxamide] was run?
Answer: 19.6 nM

Question: How did the EC50 turn out when `COC1CN(c2ccc(C(=O)NC(C)(C)c3noc(C)n3)nc2OCC2CC2)C1` [Example 8, 6-(Cyclopropylmethoxy)-5-(3-methoxyazetidin-1-yl)-N-[2-(5-methyl-1,2,4-oxadiazol-3-yl)propan-2-yl]pyridine-2-carboxamide] was run?
Answer: 86.6 nM

Question: `COC1CN(c2ccc(C(=O)N[C@@H](CC3CC3)C(N)=O)nc2OCC2CC2)C1` [Example 10, N-[(2S)-1-amino-3-cyclopropyl-1-oxopropan-2-yl]-6-(cyclopropylmethoxy)-5-(3-methoxyazetidin-1-yl)pyridine-2-carboxamide] was tested. Which EC50 did it give?
Answer: 63.4 nM

Question: `CCC(CC)(NC(=O)c1ccc(OCC2CC2)c(-c2cccc(Cl)c2)n1)C(=O)NC` [Example 7, 6-(3-Chlorophenyl)-5-(cyclopropylmethoxy)-N-[3-(methylcarbamoyl)pentan-3-yl]pyridine-2-carboxamide] was tested. Which EC50 did it give?
Answer: 51.3 nM

Question: Which EC50 does the source give for `CCC(CC)(NC(=O)c1ccc(N2CC(OC)C2)c(OCC2CC2)n1)C(=O)NCCF` [Example 25, 6-(Cyclopropylmethoxy)-N-[3-(2-fluoroethylcarbamoyl)pentan-3-yl]-5-(3-methoxyazetidin-1-yl)pyridine-2-carboxamide] here?
Answer: 334 nM

Question: For `CCC(CC)(NC(=O)c1ccc(OCC2CC2)c(Cl)n1)C(=O)NC` [Example 17, 6-Chloro-5-(cyclopropylmethoxy)-N-[3-(methylcarbamoyl)pentan-3-yl]pyridine-2-carboxamide], which EC50 is on record?
Answer: 800 nM

Question: How did the EC50 turn out when `NC(=O)CC1(NC(=O)c2ccc(N3CCC4(C3)CC4(F)F)c(OCC3CC3)n2)COC1` (stereo not drawn) [Example 32, N-[3-(2-Amino-2-oxoethyl)oxetan-3-yl]-6-(cyclopropylmethoxy)-5-(2,2-difluoro-5-azaspiro[2.4]heptan-5-yl)pyridine-2-carboxamide] was run?
Answer: 60.2 nM

Question: How did the EC50 turn out when `Cc1nc([C@H](CC2CC2)NC(=O)c2ccc(OCC3CC3)c(Cl)n2)no1` [Example 18, 6-Chloro-5-(cyclopropylmethoxy)-N-[(1S)-2-cyclopropyl-1-(5-methyl-1,2,4-oxadiazol-3-yl)ethyl]pyridine-2-carboxamide] was run?
Answer: 646 nM

Question: With `CCOC(=O)C(CC)(CC)NC(=O)c1ccc(N2CC(OC)C2)c(OCC2CC2)n1` [Example 20, Ethyl 2-[[6-(cyclopropylmethoxy)-5-(3-methoxyazetidin-1-yl)pyridine-2-carbonyl]amino]-2-ethylbutanoate] as the compound, how does the EC50 read?
Answer: 6.5 nM

Question: How did the EC50 turn out when `CC(C)C[C@H](NC(=O)c1ccc(N2CCC(O)(C(F)(F)F)C2)c(OCC2CC2)n1)C(N)=O` (stereo partly drawn) [Example 29, N-[(2S)-1-Amino-4-methyl-1-oxopentan-2-yl]-6-(cyclopropylmethoxy)-5-[3-hydroxy-3-(trifluoromethyl)pyrrolidin-1-yl]pyridine-2-carboxamide] was run?
Answer: 1890 nM

Question: `CC(C)C[C@H](NC(=O)c1ccc(OCC2CC2)c(-c2ccc(Cl)cc2)n1)C(N)=O` [Example 42, N-[(2S)-1-Amino-4-methyl-1-oxopentan-2-yl]-6-(4-chlorophenyl)-5-(cyclopropylmethoxy)pyridine-2-carboxamide] was tested. Which EC50 did it give?
Answer: 4.44 nM

Question: How did the EC50 turn out when `NC(=O)CC1(NC(=O)c2ccc(N3CC(F)(C4CC4)C3)c(OCC3CC3)n2)COC1` [Example 38, N-[3-(2-Amino-2-oxoethyl)oxetan-3-yl]-5-(3-cyclopropyl-3-fluoroazetidin-1-yl)-6-(cyclopropylmethoxy)pyridine-2-carboxamide] was run?
Answer: 48.3 nM

Same assay, conditions: CHO cells expressing human CB2 receptors; read-out: cAMP assay human CB2 EC50

Question: With `CCC(CC)(NC(=O)c1ccc(N2CC(OC)C2)c(OCC2CC2)n1)C(=O)NCCCF` [Example 27, 6-(Cyclopropylmethoxy)-N-[3-(3-fluoropropylcarbamoyl)pentan-3-yl]-5-(3-methoxyazetidin-1-yl)pyridine-2-carboxamide] as the compound, how does the EC50 read?
Answer: 444 nM

Question: How did the EC50 turn out when `CCC(CC)(NC(=O)c1ccc(N2CC(OC)C2)c(OCC2CC2)n1)C(=O)NC` [Example 23, 6-(Cyclopropylmethoxy)-5-(3-methoxyazetidin-1-yl)-N-[3-(methylcarbamoyl)pentan-3-yl]pyridine-2-carboxamide] was run?
Answer: 47 nM
